Laboratory results taken from ChEMBL document CHEMBL3763135, “Synthesis and evaluation of thiophene-based guanylhydrazones (iminoguanidines) efficient against panel of voriconazole-resistant fungal isolates” (Bioorg Med Chem, 2016).
In brackets after ≈: the same amount, converted by molar mass. Activity calls are given as the source filed them. The rule behind the calls is not given here.

What was measured:
[1] = tested on: Candida albicans; test: Induction of DNA intercalation with Candida albicans genomic DNA at 25 ug/ml after 12 hrs by ethidium bromide staining based gel electrophoresis method
[2] = tested on: Aspergillus fumigatus; test: Antifungal activity against Aspergillus fumigatus ATCC 13073 by broth dilution method; assay type: functional
[3] = tested on: Candida parapsilosis; test: Antibiofilm activity against Candida parapsilosis C27 assessed as disruption of preformed biofilm after 24 hrs by concanavalin A-FITC-staining based fluorescence microscopic analysis; assay type: functional
[4] = tested on: Candida albicans; test: Antifungal activity against Candida albicans ATCC 10231 by broth dilution method; assay type: functional
[5] = tested on: Pichia kudriavzevii; test: Antifungal activity against Candida krusei ATCC 34135 by broth dilution method; assay type: functional
[6] = tested on: Candida albicans; test: Antifungal activity against Candida albicans CA5 by broth dilution method; assay type: functional
[7] = tested on: Pichia kudriavzevii; test: Antibiofilm activity against Pichia kudriavzevii ATCC 34135 assessed as disruption of preformed biofilm after 24 hrs by concanavalin A-FITC-staining based fluorescence microscopic analysis; assay type: functional
[8] = tested on: Candida albicans; test: Antibiofilm activity against Candida albicans assessed as inhibition of Spider medium-induced hyphae formation at sub-MIC after 24 hrs by propidium iodide and FITC-conjugated concanavaline A staining based fluorescence microscopy; assay type: functional, organism-based
[9] = Hemolytic effect in sheep RBC assessed as release of hemoglobin at MIC after 1 hr; assay type: ADME, cell-based, Ovis aries, Erythrocyte; details: sheep red blood cells, read-out: Activity
[10] = tested on: Candida albicans; test: Antibiofilm activity against Candida albicans ATCC 10231 assessed as disruption of preformed biofilm after 24 hrs by concanavalin A-FITC-staining based fluorescence microscopic analysis; assay type: functional
[11] = tested on: MRC5; test: Cytotoxicity against human MRC5 cells after 48 hrs by MTT assay; assay type: cell-based; details: MRC5, 48 h
[12] = tested on: Trichophyton mentagrophytes; test: Antifungal activity against Trichophyton mentagrophytes DMT4 by broth dilution method; assay type: functional
[13] = tested on: Candida parapsilosis; test: Antifungal activity against Candida parapsilosis C27 by broth dilution method; assay type: functional
[14] = Hemolytic effect in sheep RBC assessed as release of hemoglobin at cytotoxic IC50 after 1 hr; assay type: cell-based, Ovis aries, Erythrocyte; details: sheep red blood cells, read-out: Activity
[15] = tested on: Microsporum canis; test: Antifungal activity against Microsporum canis DMT2 by broth dilution method; assay type: functional
[16] = tested on: Fusarium oxysporum; test: Antifungal activity against Fusarium oxysporum AB18 by broth dilution method; assay type: functional
[17] = species: Danio rerio; test: Toxicity against zebrafish embryo assessed as growth retardation at 2.5 ug/ml measured at 96 hrs post fertilization by inverted microscopic analysis; assay type: organism-based; details: in vivo
[18] = species: Danio rerio; test: Toxicity against zebrafish embryo assessed as normal embryos at 2.5 ug/ml measured at 96 hrs post fertilization by inverted microscopic analysis; assay type: organism-based; details: in vivo
[19] = species: Danio rerio; test: Toxicity against zebrafish embryo assessed as normal embryos at 25 ug/ml measured at 96 hrs post fertilization by inverted microscopic analysis; assay type: organism-based; details: in vivo
[20] = species: Danio rerio; test: Toxicity against zebrafish embryo assessed as effect on tail tip at 2.5 ug/ml measured at 96 hrs post fertilization by inverted microscopic analysis; assay type: organism-based; details: in vivo
[21] = species: Danio rerio; test: Toxicity against zebrafish embryo assessed as head malformation at 2.5 ug/ml measured at 96 hrs post fertilization by inverted microscopic analysis; assay type: organism-based; details: in vivo
[22] = species: Danio rerio; test: Toxicity against zebrafish embryo assessed as effect on otoliths at 2.5 ug/ml measured at 96 hrs post fertilization by inverted microscopic analysis; assay type: organism-based; details: in vivo
[23] = species: Danio rerio; test: Toxicity against zebrafish embryo assessed as unhatched embryos at 2.5 ug/ml measured at 96 hrs post fertilization by inverted microscopic analysis; assay type: organism-based; details: in vivo
[24] = species: Danio rerio; test: Toxicity against zebrafish embryo assessed as effect on eyes at 2.5 ug/ml measured at 96 hrs post fertilization by inverted microscopic analysis; assay type: organism-based; details: in vivo
[25] = Toxicity against zebrafish embryo assessed as dead embryos at 5 ug/ml measured at 96 hrs post fertilization by inverted microscopic analysis; assay type: organism-based, Danio rerio; details: read-out: Activity
[26] = species: Danio rerio; test: Toxicity against zebrafish embryo assessed as teratogenic embryos at 25 ug/ml measured at 96 hrs post fertilization by inverted microscopic analysis; assay type: organism-based; details: in vivo
[27] = Induction of membrane damage in PC/PS liposome assessed as calcein release at MIC after 30 mins by fluorescence-based liposome leakage assay; assay type: functional
[28] = species: Danio rerio; test: Toxicity against zebrafish embryo assessed as effect on notochord at 2.5 ug/ml measured at 96 hrs post fertilization by inverted microscopic analysis; assay type: organism-based; details: in vivo
[29] = Toxicity against zebrafish embryo measured at 96 hrs post fertilization by inverted microscopic analysis; assay type: organism-based, Danio rerio; details: zebrafish embryos
[30] = tested on: Danio rerio; test: Toxicity against zebrafish embryo assessed as pericardial edema at 5 ug/ml measured at 96 hrs post fertilization by inverted microscopic analysis; assay type: organism-based; details: in vivo
[31] = species: Danio rerio; test: Toxicity against zebrafish embryo assessed as effect on blood circulation at 5 ug/ml measured at 96 hrs post fertilization by inverted microscopic analysis; assay type: organism-based; details: in vivo
[32] = species: Danio rerio; test: Toxicity against zebrafish embryo assessed as teratogenic embryos at 10 ug/ml measured at 96 hrs post fertilization by inverted microscopic analysis; assay type: organism-based; details: in vivo
[33] = species: Danio rerio; test: Toxicity against zebrafish embryo assessed as teratogenic embryos at 50 ug/ml measured at 96 hrs post fertilization by inverted microscopic analysis; assay type: organism-based; details: in vivo
[34] = species: Danio rerio; test: Toxicity against zebrafish embryo assessed as effect on notochord at 5 ug/ml measured at 96 hrs post fertilization by inverted microscopic analysis; assay type: organism-based; details: in vivo
[35] = tested on: Candida albicans; test: Antifungal activity against Candida albicans CA5 assessed as fungal growth at sub-MIC measured after 24 hrs by time-kill dependence-based spectrophotometric analysis relative to DMSO control; assay type: functional, organism-based
[36] = species: Danio rerio; test: Toxicity against zebrafish embryo assessed as teratogenic embryos at 2.5 ug/ml measured at 96 hrs post fertilization by inverted microscopic analysis; assay type: organism-based; details: in vivo
[37] = tested on: Danio rerio; test: Toxicity against zebrafish embryo assessed as yolk edema at 2.5 ug/ml measured at 96 hrs post fertilization by inverted microscopic analysis; assay type: organism-based; details: in vivo
[38] = species: Danio rerio; test: Toxicity against zebrafish embryo assessed as normal embryos at 10 ug/ml measured at 96 hrs post fertilization by inverted microscopic analysis; assay type: organism-based; details: in vivo
[39] = species: Danio rerio; test: Toxicity against zebrafish embryo assessed as effect on heart beat at 5 ug/ml measured at 96 hrs post fertilization by inverted microscopic analysis; assay type: organism-based; details: in vivo
[40] = species: Danio rerio; test: Toxicity against zebrafish embryo assessed as effect on otoliths at 5 ug/ml measured at 96 hrs post fertilization by inverted microscopic analysis; assay type: organism-based; details: in vivo
[41] = species: Danio rerio; test: Toxicity against zebrafish embryo assessed as effect on heart beat at 2.5 ug/ml measured at 96 hrs post fertilization by inverted microscopic analysis; assay type: organism-based; details: in vivo
[42] = species: Danio rerio; test: Toxicity against zebrafish embryo assessed as unhatched embryos at 5 ug/ml measured at 96 hrs post fertilization by inverted microscopic analysis; assay type: organism-based; details: in vivo
[43] = tested on: Candida albicans; test: Antifungal activity against Candida albicans CA5 assessed as fungal growth at sub-MIC measured over 12 hrs by time-kill dependence-based spectrophotometric analysis relative to DMSO control; assay type: functional
[44] = species: Danio rerio; test: Toxicity against zebrafish embryo assessed as skeletal deformities at 2.5 ug/ml measured at 96 hrs post fertilization by inverted microscopic analysis; assay type: organism-based; details: in vivo
[45] = species: Danio rerio; test: Toxicity against zebrafish embryo assessed as head malformation at 5 ug/ml measured at 96 hrs post fertilization by inverted microscopic analysis; assay type: organism-based; details: in vivo
[46] = species: Danio rerio; test: Toxicity against zebrafish embryo assessed as growth retardation at 5 ug/ml measured at 96 hrs post fertilization by inverted microscopic analysis; assay type: organism-based; details: in vivo
[47] = tested on: Danio rerio; test: Toxicity against zebrafish embryo assessed as pericardial edema at 2.5 ug/ml measured at 96 hrs post fertilization by inverted microscopic analysis; assay type: organism-based; details: in vivo
[48] = species: Danio rerio; test: Toxicity against zebrafish embryo assessed as effect on blood circulation at 2.5 ug/ml measured at 96 hrs post fertilization by inverted microscopic analysis; assay type: organism-based; details: in vivo
[49] = Toxicity against zebrafish embryo assessed as dead embryos at 25 ug/ml measured at 96 hrs post fertilization by inverted microscopic analysis; assay type: organism-based, Danio rerio; details: read-out: Activity
[50] = species: Danio rerio; test: Toxicity against zebrafish embryo assessed as effect on eyes at 5 ug/ml measured at 96 hrs post fertilization by inverted microscopic analysis; assay type: organism-based; details: in vivo
[51] = species: Danio rerio; test: Toxicity against zebrafish embryo assessed as effect on tail tip at 5 ug/ml measured at 96 hrs post fertilization by inverted microscopic analysis; assay type: organism-based; details: in vivo
[52] = Toxicity against zebrafish embryo assessed as dead embryos at 10 ug/ml measured at 96 hrs post fertilization by inverted microscopic analysis; assay type: organism-based, Danio rerio; details: read-out: Activity
[53] = species: Danio rerio; test: Toxicity against zebrafish embryo assessed as teratogenic embryos at 5 ug/ml measured at 96 hrs post fertilization by inverted microscopic analysis; assay type: organism-based; details: in vivo
[54] = species: Danio rerio; test: Toxicity against zebrafish embryo assessed as normal embryos at 50 ug/ml measured at 96 hrs post fertilization by inverted microscopic analysis; assay type: organism-based; details: in vivo
[55] = Toxicity against zebrafish embryo assessed as dead embryos at 2.5 ug/ml measured at 96 hrs post fertilization by inverted microscopic analysis; assay type: organism-based, Danio rerio; details: read-out: Activity
[56] = species: Danio rerio; test: Toxicity against zebrafish embryo assessed as skeletal deformities at 5 ug/ml measured at 96 hrs post fertilization by inverted microscopic analysis; assay type: organism-based; details: in vivo
[57] = tested on: Danio rerio; test: Toxicity against zebrafish embryo assessed as yolk edema at 5 ug/ml measured at 96 hrs post fertilization by inverted microscopic analysis; assay type: organism-based; details: in vivo
[58] = species: Danio rerio; test: Toxicity against zebrafish embryo assessed as normal embryos at 5 ug/ml measured at 96 hrs post fertilization by inverted microscopic analysis; assay type: organism-based; details: in vivo
[59] = Toxicity against zebrafish embryo assessed as dead embryos at 50 ug/ml measured at 96 hrs post fertilization by inverted microscopic analysis; assay type: organism-based, Danio rerio; details: read-out: Activity

SMILES: COc1ccc(-c2ccc(/C=N/NC(=N)N)s2)cc1.Cl
- Activity [1]: Active
- MIC [2]: 25 µg/mL
- MBEC [3]: 1000 µg/mL
- MIC [4]: 7.8 µg/mL
- MIC [5]: 6.25 µg/mL
- MIC [6]: 3.9 µg/mL
- MBEC [7]: 1000 µg/mL
- Activity [8]: Active
- hemolysis at 1 h [9]: ≤ 10%
- MBEC [10]: 500 µg/mL
- IC50 [11]: 5 µg/mL
- MIC [12]: 3.12 µg/mL
- MIC ([13]; Lodderomyces parapsilosis): 6.25 µg/mL
- hemolysis at 1 h [14]: ≤ 10%
- MIC [15]: 0.97 µg/mL
- MIC [16]: > 250 µg/mL

SMILES: C[C@@H](c1ncncc1F)[C@](O)(Cn1cncn1)c1ccc(F)cc1F [VORICONAZOLE]
- Activity [17]: 100%
- Activity [18]: 0%
- Activity [19]: 0%
- MIC [2]: 0.06 µg/mL (≈ 0.172 µM)
- Activity [20]: 0%
- Activity [21]: 100%
- Activity [22]: 100%
- Activity [23]: 0%
- MBEC [3]: inactive
- MIC [4]: 0.5 µg/mL (≈ 1.43 µM)
- Activity [24]: 100%
- mortality at 96 h, 5 ug/ml [25]: 80%
- Activity [26]: 0%
- Activity [27]: 12%
- MIC [5]: 0.06 µg/mL (≈ 0.172 µM)
- Activity [28]: 0%
- MIC [6]: inactive
- LC50 at 96 h [29]: 3.1 µg/mL (≈ 8.87 µM)
- Activity [30]: 100%
- MBEC [7]: 250 µg/mL
- Activity [31]: 100%
- Activity [32]: 0%
- Activity [33]: 0%
- Activity [8]: Active
- MBEC [10]: 250 µg/mL
- Activity [34]: 0%
- Activity [35]: inactive
- MIC [12]: 0.25 µg/mL (≈ 0.716 µM)
- MIC [13]: inactive
- Activity [36]: 63.33%
- Activity [37]: 0%
- Activity [38]: 0%
- Activity [39]: 100%
- Activity [40]: 100%
- Activity [41]: 0%
- Activity [42]: 0%
- MIC [15]: 0.5 µg/mL (≈ 1.43 µM)
- MIC [16]: inactive
- Activity [43]: Active
- Activity [44]: 94.74%
- Activity [45]: 100%
- Activity [46]: 100%
- Activity [47]: 100%
- Activity [48]: 0%
- mortality at 96 h, 25 ug/ml [49]: 100%
- Activity [50]: 100%
- Activity [51]: 0%
- mortality at 96 h, 10 ug/ml [52]: 100%
- Activity [53]: 20%
- Activity [54]: 0%
- mortality at 96 h, 2.5 ug/ml [55]: 36.7%
- Activity [56]: 100%
- Activity [57]: 100%
- Activity [58]: 0%
- mortality at 96 h, 50 ug/ml [59]: 100%
